How the values were obtained:
[1] = test system: SRE (Serum response element); experiment: SRE luciferase reporter assay in HEK293 cells; format: cell-based; details: HEK293, TPA 10 ng/ml 18 hours
Protocol: (§1) All expression plasmids were transiently transfected into HEK293 cells in a 96-well plate (0.1 μg/well) by using Effectene transfection reagent (Qiagen, Valencia, Calif.) according to the manufacturer's manual. HEK293 cells were maintained in Dulbecco's modified Eagle medium (Sigma, St. Louis, Mo.) supplemented with 10% fetal bovine serum (Atlanta Biologicals, Lawrenceville, Ga.) and incubated at 37° C. in a 5% CO2 incubator. After 24 hrs incubation, the medium was changed to DMEM with 0.2% FBS, and the transfectants were exposed to various concentrations of compound I and TPA (10 ng/ml). Cells were lysed with passive lysis buffer and the luciferase assay was performed using the Firefly-Luciferase reporter assay system (Promega, Madison, Wis.) and MLX Luminometer (Dynex Technology, Chantilly, Va.).
Three different luciferase reporter genes, AP-1 reporter containing four times TRE consensus originated from GCN4 and SRE reporter purchased from Stratagene (La Jolla, Calif.) respectively are as described previously (Suzukawa et al., Environ. Health Perspect., 2002, 110, 865-70). NFκB reporter is driven by five times NFκB responsive element inserted into Cis-reporter backbone (Stratagene, La Jolla, Calif.). […]

NFκB = NFκB luciferase reporter assay in HEK293 cells; format: cell-based; details: at 1 to 8 μM, TPA 10 ng/ml 18 hours
Protocol: as §1
(§2) Three different luciferase reporter genes, AP-1 reporter containing four times TRE consensus originated from GCN4 and SRE reporter purchased from Stratagene (La Jolla, Calif.) respectively are as described previously (Suzukawa et al., Environ. Health Perspect., 2002, 110, 865-70). NFκB reporter is driven by five times NFκB responsive element inserted into Cis-reporter backbone (Stratagene, La Jolla, Calif.). Others include mouse COX-2 promoter region from −203 to +70 relative to the transcription site inserted into pTIS10L vector (Kim and Fischer, J. Biol. Chem., 1998, 273, 27686-94), human uPAR promoter region from −141 to +47 relative to transcription start site in pGL3 vector (Wang et al., Eur. J. Biochem., 2000, 267, 3248-54), and human VEGF promoter sequence from −2274 to +379 inserted into the pGL2 vector (Ding et al., J. Biol. Chem., 2006, 281, 9093-100).
To evaluate whether the compound I biological activity can imitate TAM67 specificity, three different transcriptional promoter reporters were used, AP-1, NFκB, and SRE (Serum response element) in luciferase reporter assays (FIG. 1A: The transfected cells were pre-treated with varied concentrations of compound I or DMSO for 1 hour before 18 hours stimulation by TPA (10 ng/ml) or DMSO as vehicle. An asterisk (*) indicates a separate experiment with NFκB dependent luciferase only. Assays were performed with two independent experiments each in quadruplicate.). All three activities were induced by TPA but only induction of AP-I and NFκB were inhibited by TAM67. The SRE reporter was used as a specificity control and indicator of cell proliferation. TPA-induced SRE activity was not repressed by TAM67 when coexpressed with the SRE-Luc reporter in HEK293 cells. The same concentration (10 ng/ml, 16.2 nM) and incubation time (18 hrs) were used for TPA induction as previously used for the high throughput screen (HTS) (Ruocco et al., J. Biomol. Screen., 2007, 12, 133-9) along with 1 h pretreatment of compound I. The screening results had tested concentrations as high as 40 μM compound I with cell numbers showing 95.5+/−6.2% of DMSO control (ave+/− sd, n=3) by the XTT assay in HEK293T cells.

IKKβ = biological target: T1, IKKβ (Homo sapiens, UniProt O14920); experiment: K-LISA IKKβ Inhibitor Screening Kit in vitro assay; format: biochemical; details: 0.1 to 100 μM, incubated with ATP
T1 construct: purchased Calbiochem
T1 sequence (O14920 1-756): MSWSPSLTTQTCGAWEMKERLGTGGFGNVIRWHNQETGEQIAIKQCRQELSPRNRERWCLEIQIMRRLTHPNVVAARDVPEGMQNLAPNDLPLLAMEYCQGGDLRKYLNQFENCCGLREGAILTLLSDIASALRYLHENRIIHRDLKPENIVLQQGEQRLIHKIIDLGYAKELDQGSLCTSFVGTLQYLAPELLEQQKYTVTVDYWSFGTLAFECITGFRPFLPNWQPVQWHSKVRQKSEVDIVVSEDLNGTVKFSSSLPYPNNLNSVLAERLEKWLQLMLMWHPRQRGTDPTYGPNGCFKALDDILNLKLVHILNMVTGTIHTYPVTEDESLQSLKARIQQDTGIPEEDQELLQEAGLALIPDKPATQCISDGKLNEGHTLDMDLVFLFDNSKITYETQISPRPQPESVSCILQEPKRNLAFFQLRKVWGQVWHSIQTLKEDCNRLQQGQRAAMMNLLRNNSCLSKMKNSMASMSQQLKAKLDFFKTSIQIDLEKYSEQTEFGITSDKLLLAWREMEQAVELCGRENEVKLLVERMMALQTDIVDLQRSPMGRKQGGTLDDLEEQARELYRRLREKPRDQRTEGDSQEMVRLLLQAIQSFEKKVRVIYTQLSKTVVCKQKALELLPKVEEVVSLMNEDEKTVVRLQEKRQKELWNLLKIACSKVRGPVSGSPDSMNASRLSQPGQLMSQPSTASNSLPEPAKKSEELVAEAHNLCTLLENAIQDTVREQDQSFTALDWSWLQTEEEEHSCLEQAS
Protocol: In an attempt to determine whether compound I interferes with ATP binding to the catalytic site, the activity of compound I was measured with fully activated, phosphorylated IKKα or IKKβ. […] However, whether this compound interacts outside of the ATP binding pocket of IKK as an ATP non-competitive inhibitor similar to BMS-345541 is unknown. […] Luciferase activities with TPA induction alone were set at 100% and the relative activities with TPA in the presence of compounds are shown.

AP-1 = AP-1 luciferase reporter assay in HEK293 cells; format: cell-based; details: HEK293, TPA 10 ng/ml 18 hours
Protocol: as §1
as §2, with “9093-100). […]” for “9093-100).”

Row | Inhibition of phosphorylation of IκBα peptide substrate catalyzed by IKKβ (IKKβ) | Compound | TPA-induced SRE luciferase activity [1] | Inhibition of NFκB-Luciferase (NFκB) | Inhibition of TPA-induced AP-1 luciferase activity (AP-1)
1 | – | O=C(O)c1cc(/N=N/c2ccc(S(=O)(=O)Nc3ccccn3)cc2)ccc1O [sulfasalazine, reference compound] | no sparing | – | –
2 | no inhibition | Cc1ccc2nc(NCCN)c3ncc(C)n3c2c1 [BMS-345541, reference compound] | – | dose-dependent inhibition | without inhibition

Reference: patent publication US8729053B2, “Nuclear factor kappa B pathway inhibitor composition and use of same” (The United States of America, as represented by the …, priority 2008, dated 2014)
